From patent US5021413A (priority 1988, dated 1991)
Structures can show the parent of a compound that is named as a salt.

Legend:
[1] = biological target: T1, κ-receptors (Cavia porcellus, UniProt P41144); assay: biochemical; format: binding, guinea pig (male Hartley)
T1 construct: A raw preparation from brain membrane was made; tissue Japan SLC; host or cells: guinea pig whole brain without cerebellum, crude membranes

[2] = biological target: T2, μ-receptors (Cavia porcellus, UniProt A0ACM8Q262); parameters: species or system guinea pig (male Hartley); conditions: read-out: Binding to opioid receptors, μ (IC50)
T2 construct: [3H]DAGO (DAMGO) displacement

[3] = tested on: p-phenylquinone-induced writhing in mice; assay: animal or person; format: in vivo, mouse (male ddY mice); conditions: sc; for ED50: Mus musculus, read-out: Analgesic effect, phenylquinone-induced writhing, ED50; for Analgesic effect, phenylquinone-induced writhing at 320 μg/kg (analgesic-effective animals/all animals): mouse, in vivo

T2 sequence (A0ACM8Q262 1-400): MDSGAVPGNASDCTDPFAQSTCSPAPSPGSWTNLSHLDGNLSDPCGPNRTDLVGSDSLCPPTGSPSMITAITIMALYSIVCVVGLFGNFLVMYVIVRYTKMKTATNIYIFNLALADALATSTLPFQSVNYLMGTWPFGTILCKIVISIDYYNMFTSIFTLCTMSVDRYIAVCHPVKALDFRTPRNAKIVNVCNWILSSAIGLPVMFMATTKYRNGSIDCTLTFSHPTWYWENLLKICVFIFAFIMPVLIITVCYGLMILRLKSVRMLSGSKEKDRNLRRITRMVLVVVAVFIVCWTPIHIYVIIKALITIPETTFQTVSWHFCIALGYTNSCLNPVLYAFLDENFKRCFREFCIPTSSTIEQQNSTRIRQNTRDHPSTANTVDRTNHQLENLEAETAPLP
T1 sequence (P41144 whole entry): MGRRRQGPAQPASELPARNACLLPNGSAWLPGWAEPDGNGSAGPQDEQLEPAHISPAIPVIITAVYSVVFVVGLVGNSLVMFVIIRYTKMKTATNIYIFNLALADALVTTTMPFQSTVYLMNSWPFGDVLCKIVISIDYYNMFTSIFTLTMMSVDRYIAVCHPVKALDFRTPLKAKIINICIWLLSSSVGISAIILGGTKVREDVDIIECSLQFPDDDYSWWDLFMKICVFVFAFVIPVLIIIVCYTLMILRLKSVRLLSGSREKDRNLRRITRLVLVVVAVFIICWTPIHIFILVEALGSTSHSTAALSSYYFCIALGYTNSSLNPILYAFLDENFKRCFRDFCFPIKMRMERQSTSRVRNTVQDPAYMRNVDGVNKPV

Row | SMILES | IC50 [1] [nM] | IC50 [2] [nM] | ED50 [3] [µg/kg] | Analgesic effect, phenylquinone-induced writhing at 320 μg/kg (analgesic-effective animals/all animals) [3]
1 | O=C1C[C@H](C(=O)N2CCCC[C@H]2CN2CCCC2)c2cc(Cl)c(Cl)cc21 (relative stereo) [Example 4-D1, 1-[(1S*)-5,6-dichloro-3-oxoindan-1-carbonyl)-(2S*)-2-pyrrolidin-1-ylmethyl)piperidine] | 1.4 | 531 | 3.43 | 
2 | O=C1C[C@@H](C(=O)N2CCCC[C@H]2CN2CCCC2)c2cc(Cl)c(Cl)cc21 (relative stereo) [Example 4-D2, 1-[(1R*)-5,6-dichloro-3-oxoindan-1-carbonyl](2S*)-2-(pyrrolidin-1-ylmethyl)piperidine] | 366 |  | 270 | 
3 | O=C([C@H]1CCc2cc(Cl)c(Cl)cc21)N1CCSC[C@@H]1CN1CCCC1 (relative stereo) [Example 41-D1, 4-[(1S*)-5,6-dichloroindan-1-carbonyl]-(3S*)-3-(pyrrolidin-1-ylmethyl)thiomorpholine] | 0.67 | 698 | 1.3 | 
4 | O=C1CC(C(=O)N2CCCCC2CN2CCCC2)c2cc(Cl)c(Cl)cc21 (stereo not shown) [Example 1, 1-(5,6-dichloro-3-oxoindan-1-carbonyl)-2-(pyrrolidin-1-yl-methyl)piperidinehydrochloride] | 1.75 | 1070 | 6.2 | 
5 | O=C1C[C@H](C(=O)N2CCCC[C@H]2CN2CCCC2)c2cc(Cl)c(Cl)cc21 [Example 2-E1, 1-[(1S)-5,6-dichloro-3-oxoindan-1-carbonyl]-(2S)-2-(pyrrolidin-1-ylmethyl)piperidine] | 0.9 | 232 | 1.73 | 
6 | O=C1C[C@@H](C(=O)N2CCCC[C@H]2CN2CCCC2)c2cc(Cl)c(Cl)cc21 [Example 2-E2, 1-[(1R)-5,6-dichloro-3-oxoindan-1-carbonyl]-(2S)-2-(pyrrolidin-1-ylmethyl)piperidine] | 258 |  | 320 | 
7 | O=C(Cc1ccc(Cl)c(Cl)c1)N1CCSCC1CN1CCCC1 (stereo not shown) [Example 17, 4-(3,4-dichlorophenylacetyl)-3-(pyrrolidin-1-ylmethyl)thiomorpholine hydrochloride] | 1.1 |  |  | 5/5
8 | O=C1CC(C(=O)N2CCSCC2CN2CCCC2)c2cc(Cl)c(Cl)cc21 (stereo not shown) [Example 36, 4-(5,6-dichloro-3-oxoindan-1-carbonyl)-3-(pyrrolidin-1-ylmethyl)thiomorpholine hydrochloride] | 2.4 | 1140 | 3.4 | 
9 | CN1CC[C@]23c4c5ccc(O)c4O[C@H]2[C@@H](O)C=C[C@H]3[C@H]1C5.Cl [Morphine HCl, reference compound] |  |  |  | 2/5
